According to article PMC3391414 (Journal of Agricultural and Food Chemistry, 2011):
Values joined by “and” are separate entries in the source; they are usually repeats but may differ in a detail not shown here. Identical values can stand only once. “Also recorded” adds a separate entry of the source. Like-named read-outs stand apart in the source and are kept apart here.

Tests used:
[1] = target: T1, UGT1A1 (Homo sapiens, UniProt P22309); conditions: 10 μM, pH 7.4
T1 sequence (P22309 26-533): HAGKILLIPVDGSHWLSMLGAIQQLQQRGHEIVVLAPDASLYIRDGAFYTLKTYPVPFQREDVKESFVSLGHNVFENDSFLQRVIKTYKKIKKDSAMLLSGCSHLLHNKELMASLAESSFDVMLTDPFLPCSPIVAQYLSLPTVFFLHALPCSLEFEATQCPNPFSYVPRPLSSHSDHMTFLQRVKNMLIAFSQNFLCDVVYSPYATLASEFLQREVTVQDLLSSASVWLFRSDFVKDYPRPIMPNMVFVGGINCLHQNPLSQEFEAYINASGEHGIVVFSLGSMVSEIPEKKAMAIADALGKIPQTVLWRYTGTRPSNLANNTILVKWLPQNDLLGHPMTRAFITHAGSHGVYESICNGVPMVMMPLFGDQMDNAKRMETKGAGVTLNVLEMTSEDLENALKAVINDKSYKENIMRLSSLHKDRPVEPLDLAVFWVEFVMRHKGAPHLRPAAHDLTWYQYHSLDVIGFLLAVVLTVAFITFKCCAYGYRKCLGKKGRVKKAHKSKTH

[2] = target: T1, UGT1A1; assay: Glucuronidation by recombinant human UGT1A1
[3] = target: T2, UGT1A9 (Homo sapiens, UniProt O60656); assay: Glucuronidation by recombinant human UGT1A9
T2 sequence (O60656 26-530): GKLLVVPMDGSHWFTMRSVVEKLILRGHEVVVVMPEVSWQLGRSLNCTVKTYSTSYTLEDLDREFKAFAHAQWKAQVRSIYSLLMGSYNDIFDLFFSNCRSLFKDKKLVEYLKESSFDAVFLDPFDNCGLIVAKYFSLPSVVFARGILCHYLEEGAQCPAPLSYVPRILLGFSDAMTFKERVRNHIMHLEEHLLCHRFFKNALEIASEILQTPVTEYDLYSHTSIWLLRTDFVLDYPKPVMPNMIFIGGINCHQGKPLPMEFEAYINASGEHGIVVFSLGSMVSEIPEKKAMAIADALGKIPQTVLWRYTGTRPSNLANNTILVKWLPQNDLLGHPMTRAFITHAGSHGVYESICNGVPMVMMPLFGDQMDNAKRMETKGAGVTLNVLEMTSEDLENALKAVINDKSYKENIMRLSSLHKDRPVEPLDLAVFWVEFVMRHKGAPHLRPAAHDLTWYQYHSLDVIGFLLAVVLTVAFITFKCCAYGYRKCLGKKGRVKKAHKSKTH

[4] = target: T3, UGT1A8 (Homo sapiens, UniProt Q9HAW9); assay: Glucuronidation by recombinant human UGT1A8
T3 sequence (Q9HAW9 26-530): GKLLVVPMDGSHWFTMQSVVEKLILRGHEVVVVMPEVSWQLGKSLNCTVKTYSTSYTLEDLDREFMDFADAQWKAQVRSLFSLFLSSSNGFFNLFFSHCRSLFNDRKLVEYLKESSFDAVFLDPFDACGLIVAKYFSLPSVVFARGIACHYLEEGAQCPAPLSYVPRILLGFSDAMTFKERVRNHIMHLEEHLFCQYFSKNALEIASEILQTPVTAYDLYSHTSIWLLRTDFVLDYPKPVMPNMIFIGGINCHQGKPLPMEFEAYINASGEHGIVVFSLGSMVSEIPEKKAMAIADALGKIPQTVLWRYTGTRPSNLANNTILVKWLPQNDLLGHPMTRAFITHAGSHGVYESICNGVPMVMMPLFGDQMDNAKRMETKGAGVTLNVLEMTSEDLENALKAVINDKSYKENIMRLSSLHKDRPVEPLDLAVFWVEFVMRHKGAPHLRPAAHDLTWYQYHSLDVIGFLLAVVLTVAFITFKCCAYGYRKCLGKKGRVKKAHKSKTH

[5] = target: T4, UGT1A10 (Homo sapiens, UniProt Q9HAW8); assay: Glucuronidation by recombinant human UGT1A10; conditions: UGT1A10, substrate 10 μM
T4 sequence (Q9HAW8 26-530): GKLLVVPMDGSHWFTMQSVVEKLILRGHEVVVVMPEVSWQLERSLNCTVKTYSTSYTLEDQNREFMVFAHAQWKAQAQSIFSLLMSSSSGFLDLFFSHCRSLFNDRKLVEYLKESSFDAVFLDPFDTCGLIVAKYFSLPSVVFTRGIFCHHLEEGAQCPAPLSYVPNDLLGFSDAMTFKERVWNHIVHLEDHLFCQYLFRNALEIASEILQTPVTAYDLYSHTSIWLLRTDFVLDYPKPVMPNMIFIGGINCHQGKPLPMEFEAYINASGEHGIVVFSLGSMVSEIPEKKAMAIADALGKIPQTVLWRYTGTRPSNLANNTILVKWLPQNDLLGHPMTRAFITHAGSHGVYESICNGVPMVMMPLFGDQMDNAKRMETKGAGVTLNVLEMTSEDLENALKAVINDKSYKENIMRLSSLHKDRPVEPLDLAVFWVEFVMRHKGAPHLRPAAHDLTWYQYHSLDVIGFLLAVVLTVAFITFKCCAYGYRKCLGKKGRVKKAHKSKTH

[6] = target: T5, UGT1A7 (Homo sapiens, UniProt Q9HAW7); assay: Glucuronidation by recombinant human UGT1A7; conditions: UGT1A7, substrate 10 μM
T5 sequence (Q9HAW7 26-530): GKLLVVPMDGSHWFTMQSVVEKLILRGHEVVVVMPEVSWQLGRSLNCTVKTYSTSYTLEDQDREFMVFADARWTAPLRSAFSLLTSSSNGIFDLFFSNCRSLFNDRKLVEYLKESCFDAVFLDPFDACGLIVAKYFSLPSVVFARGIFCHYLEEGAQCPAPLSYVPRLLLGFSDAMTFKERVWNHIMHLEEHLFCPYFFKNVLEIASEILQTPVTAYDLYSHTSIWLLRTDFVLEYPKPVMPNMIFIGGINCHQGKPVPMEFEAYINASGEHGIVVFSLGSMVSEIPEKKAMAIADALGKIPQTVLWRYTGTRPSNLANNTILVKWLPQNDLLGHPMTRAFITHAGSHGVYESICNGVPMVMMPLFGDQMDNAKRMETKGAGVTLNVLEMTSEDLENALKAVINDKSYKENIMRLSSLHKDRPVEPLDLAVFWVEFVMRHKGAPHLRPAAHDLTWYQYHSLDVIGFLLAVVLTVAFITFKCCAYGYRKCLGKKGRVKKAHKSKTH

| Structure (SMILES) | Hydroxyl positions glucuronidated [1] | Degree of regiospecificity (major glucuronide in bracket) ([2]; UGT1A1, substrate 2.5 μM) | Degree of regiospecificity (major glucuronide in bracket) ([2]; UGT1A1, substrate 2.5 μM, listed as 5,7,4’THFnol) | Degree of regiospecificity (major glucuronide in bracket) ([2]; UGT1A1, substrate 10 μM) | Hydroxyl positions glucuronidated ([2]; UGT1A1, substrate 10 μM) | Degree of regiospecificity (major glucuronide in bracket) ([2]; UGT1A1, substrate 10 μM, listed as 5,7,4’THFnol) | Degree of regiospecificity (3-O vs 7-O) ([2]; UGT1A1, substrate 35 μM) | Degree of regiospecificity (major glucuronide in bracket) ([3]; UGT1A9, substrate 2.5 μM) | Degree of regiospecificity (major glucuronide in bracket) ([3]; UGT1A9, substrate 2.5 μM, listed as 5,7,4’THFnol) | Degree of regiospecificity (major glucuronide in bracket) ([3]; UGT1A9, substrate 10 μM) | Hydroxyl positions glucuronidated ([3]; UGT1A9, substrate 10 μM) | Degree of regiospecificity (major glucuronide in bracket) ([3]; UGT1A9, substrate 10 μM, listed as 5,7,4’THFnol) | Degree of regiospecificity (3-O vs 7-O) ([3]; UGT1A9, substrate 35 μM) | Hydroxyl positions glucuronidated ([4]; UGT1A8, substrate 10 μM) | Degree of regiospecificity (3-O vs 7-O) ([4]; UGT1A8, substrate 35 μM) | Hydroxyl positions glucuronidated [5] | Hydroxyl positions glucuronidated [6] |
| --- | --- | --- | --- | --- | --- | --- | --- | --- | --- | --- | --- | --- | --- | --- | --- | --- | --- |
| O=c1cc(-c2ccccc2)oc2cc(O)cc(O)c12 [5,7DHF, 5,7-dihydroxyflavone] | glucuronidated 7-O position only |  |  |  |  |  |  |  |  |  |  |  |  |  |  |  |  |
| O=c1c(O)c(-c2ccc(O)cc2)oc2cc(O)cc(O)c12 [5,7,4'THFnol, 3,5,7,4’-tetrahydroxyflavone] |  | Weak (7-O) | weakly preferred the glucuronidation of 7-O position | No (3-O, 7-O) | glucuronidated 3-O, 7-O and 4’-O | no regiospecific preference between 3-O and 7-O; also recorded: no regiospecificity | no regiospecificity | Moderate (3-O) | moderate regiospecificity for glucuronidation of 3-O position | Weak (3-O) | glucuronidated only 3-O and 7-O positions | only weakly preferred 3-O position; also recorded: weak regiospecificity for glucuronidation of 3-O position | no regiospecificity | glucuronidated 3-O, 7-O and 4’-O | weak regiospecificity and 7-O was the preferred position | glucuronidated 3-O, 7-O and 4’-O | glucuronidated 3-O, 7-O and 4’-O |
